This is an account of results in patent US11450448B2, “Use of a linear octafluorobutene as a dielectric compound in an environmentally safe dielectric-insulation or arc-extinction fluid” (HITACHI ENERGY SWITZERLAND AG, priority 2016, dated 2022).

The test system of one series is rats. In words: median lethal concentration (LC50) measured on rats. It is filed as in vivo. Conditions: compared with C4N and C5K. The source says: Specifically, the term “environmentally safe” also means that the dielectric-insulation or arc-extinction fluid has a relatively low toxicity level. More specifically, the median lethal dose (LC50; lethal concentration 50%; measured on rats) of the dielectric compound used in the environmentally safe dielectric-insulation or arc-extinction fluid is higher than 4′000 ppm, preferably higher than 5′000 ppm and more preferably higher than 6′000 ppm. Thus, the dielectric compound used according to the present invention ranges within the same toxicity class as previously mentioned C4N (having a much higher GWP than the dielectric compound used according to the present invention) and C5K (having a much higher boiling point than the dielectric compound used according to the present invention).

A short description of series [1]: Decomposition tests: accelerated ageing with GIS materials. The series is classed as physicochemical. The note with it: aged at 100° C. with Cu/Al plates, EPDM sealings, zeolites, SiO2, paints, grease, nitrile-butadiene rubber; analysed after 8 weeks of exposure. The protocol: In order to assess the material compatibility of octafluoro-2-butene towards material typically used in a GIS, the following components were aged at accelerated conditions (at 100° C.) with octafluoro-2-butene gas:
Both the gas as well as the components exposed to the gas were analysed after 8 weeks of exposure.

As for “linear octafluorobutene [linear octafluorobutenes]”, the toxicity class entry with rats was “ranges within the same toxicity class as for example heptafluoroisobutyronitrile (C4N) and 1,1,1,3,4,4,4-heptafluoro-3-(trifluoromethyl)-butan-2-one (C5K)”.
Regarding `FC(=C(F)C(F)(F)F)C(F)(F)F` [octafluoro-2-butene], the “decomposition of the gas” value in series [1] is recorded as “For none of the tests, a decomposition of the octafluoro-2-butene was determined”.
